Values quoted from earlier work in US9970152B2, “Method for functionalizing a solid material surface with self assembling or self aggregating cyclodextrins and products thereof” (Aalborg Universitet, priority 2010, dated 2018).

Conditions: in water

SMILES: OC[C@H]1O[C@@H]2O[C@H]3[C@H](O)[C@@H](O)[C@@H](O[C@H]4[C@H](O)[C@@H](O)[C@@H](O[C@H]5[C@H](O)[C@@H](O)[C@@H](O[C@H]6[C@H](O)[C@@H](O)[C@@H](O[C@H]7[C@H](O)[C@@H](O)[C@@H](O[C@H]1[C@H](O)[C@H]2O)O[C@@H]7CO)O[C@@H]6CO)O[C@@H]5CO)O[C@@H]4CO)O[C@@H]3CO [α CD]
- Solubility: 129.5 g/kg H2O
